The test system of the assay is P. falciparum 3D7 growth, pLDH absorbance. Description: P. falciparum 3D7 growth inhibition, dose response, strain 3D7 (AID 2305).

For orientation: IC50 means the concentration at which inhibition is half-maximal. Read a low IC50 as greater potency in that assay. `O=C(Nc1cccc(CN2CCCN(Cc3ccc4c(c3)OCO4)CC2)c1)c1ccc(-c2ccccc2)cc1` came in with an IC50 of 0.65 µM.

Consider `COc1ccc(CC(C)NCC(O)c2cccc(Br)c2)cc1` (configuration not stated), for which the IC50 came out at 0.96 µM. Under `O=C(Nc1cccc(-c2csc(-c3ccccc3)n2)c1)c1cccs1` stands 0.8 µM; under `COc1cc(CNC[C@@H](O)[C@H](Cc2ccccc2)NC(=O)c2cc(OC(C)C)cc(N3CCCCS3(=O)=O)c2)cc(OC)c1`, 0.59 µM; under `CC1CCN(Cc2c(O)ccc3c(=O)c(-c4nc5ccccc5s4)c(N)oc23)CC1`, 0.16 µM. `Cc1cccc2[nH]c(-c3ccc(-c4cccc(NC(=O)C(C)CN(C)C)c4)cc3)nc12` (configuration not stated) showed a concentration for half-maximal inhibition (IC50) of 0.65 µM. `COc1cc(CN2CCC(C(=O)Nc3ccc(-c4cccc(C)c4)cc3)CC2)ccc1O` came in with a 50% inhibitory concentration (IC50) of 1.12 µM. In turn, `Nc1nc2ncn(COC(COCc3ccccc3)COCc3ccccc3)c2c(=O)[nH]1` (tested in a mixture with another compound) returned an IC50 of 0.71 µM. Under `O=C(/C=C/c1ccc(Cl)c(Cl)c1)NCCCCCN1CC[C@H](c2c[nH]c3ccccc23)[C@@H](O)C1` stands 0.8 µM; under `NC(N)=NC(=O)Nc1cc(F)c(Cl)c(Br)c1`, 0.99 µM. `COc1ccc([C@@]23Oc4cc(OC)cc(OC)c4[C@]2(O)C2(CC3c3ccccc3)SCCCS2)cc1` (some centres not stated) had a 50% inhibitory concentration (IC50) of 0.12 µM.

`CN(Cc1ccccc1)C(=O)CCNS(=O)(=O)c1cc(Br)cnc1N` gave a concentration for half-maximal inhibition (IC50) of 1.13 µM.

For the molecule `Cc1cc(OCC2CCN(c3ccc(C(=O)NC4CC4)cn3)CC2)ccc1F`, the half-maximal inhibitory concentration (IC50) came to 0.87 µM. The IC50 values of the last two molecules are within 1.5-fold of each other. `C[C@@H](CC1CCCCC1)NCc1ccccc1O` came in with a half-inhibitory concentration (IC50) of 0.93 µM. As for `O=C(Nc1cccc(-c2cccc(-c3nc4ccccc4[nH]3)c2)c1)Nc1ccc(F)c(F)c1F`, the IC50 was 0.06 µM. In turn, `FC(F)(F)c1ccc2nc(-c3cccc(-c4ccc(CNCCN5CCNCC5)cc4)c3)[nH]c2c1` displayed a 50% inhibitory concentration (IC50) of 0.86 µM. In turn, `Cc1cc(N(C)CCN(C)C)nc(Nc2ccc(Cl)cc2)n1` registered a half-inhibitory concentration (IC50) of 0.97 µM. With `CC(Cc1ccc(NC(=O)[C@H](C)NCCc2cccc(Cl)c2)cc1)NCCc1cccc(Cl)c1` (some centres not stated) the figure was 0.66 µM. Consider `Fc1ccc2nc(-c3cccc(-c4ccc(CN5CCCCC5)cc4)c3)[nH]c2c1`, for which the 50% inhibitory concentration (IC50) amounted to 0.16 µM. `FC(F)(F)COc1ccc(CCNCCCCNCCc2ccc(OCC(F)(F)F)c3ccccc23)c2ccccc12` registered an IC50 of 0.65 µM. Molecule `CCSc1ccccc1COc1c(C)nc(N)nc1N` gave an IC50 of 0.07 µM. Compared with the last molecule, the IC50 is about 9.3-fold lower. Take `O=S(=O)(c1cccc(C(F)(F)F)c1)N1CCC(CO)(Cc2cccc(C(F)(F)F)c2)CC1`: the IC50 stood at 0.96 µM.

For `Cc1ccc(CN2CCN(Cc3cccc(NC(=O)c4ccc5ccccc5c4)c3)CC2)cc1C`, the IC50 worked out at 1.22 µM. With `Cc1cc(N2CCN(C3CCCCC3)CC2)nc2cccc(O)c12`, the IC50 is 0.7 µM.

Take `O=[N+]([O-])c1ccc(C=NO)nc1`: the IC50 came out at 0.87 µM.

For `CSc1ccc(C[C@@H](C)NC[C@H](O)c2cccc(Cl)c2)cc1`, the concentration for half-maximal inhibition (IC50) stood at 0.94 µM. Take `CCCN1CCC2(CC1)NC(C(=O)NCCC(C)C)Cc1c2[nH]c2cc(Cl)ccc12` (configuration not stated): the concentration for half-maximal inhibition (IC50) turned out to be 1.38 µM. This IC50 and that of the molecule before are within 1.5-fold of each other. For `Cc1cc(CN2CC[C@H](NC(=O)c3ccc(Cl)c(Cl)c3)C2)ccc1OCCCN(C)C`, the half-maximal inhibitory concentration (IC50) was found to be 0.84 µM. With `Cc1noc(C)c1-c1ccc2c(Nc3ccccc3N3CCOCC3)c(C(=O)NCc3ccccc3)cnc2c1` the figure was 1.18 µM; with `Cc1cccc2[nH]c(-c3cccc(-c4cccc(NC(=O)Nc5ccc(Cl)cc5)c4)c3)nc12`, 0.24 µM; with `CCc1cn2c3c(cc(C(=O)N[C@@H](Cc4ccccc4)[C@H](O)CN[C@@H](C)CC)cc13)N(C)S(=O)(=O)CC2`, 0.07 µM. With `O=C(NC1CCN(c2ccnc(Nc3ccc(F)cc3)n2)C1)c1cc2ccccc2s1` (configuration not stated) the figure was 0.72 µM; with `CCC[C@@H]([C@@H](Cc1ccc(C)s1)C(=O)N[C@@H](CNC(C)=O)C(=O)Nc1nccs1)N(O)C=O`, 0.18 µM. As for `CC(C)(C)OC(=O)[C@H](CC(N)=O)NC(=O)c1ccc(-c2ccc(-c3nc4ccc(C(F)(F)F)cc4[nH]3)s2)cc1`, the concentration for half-maximal inhibition (IC50) is 0.27 µM.

Take `O=[N+]([O-])c1cccc(Nc2nccc(-c3cnn4ncccc34)n2)c1`: the IC50 amounted to 0.18 µM. With `CN1CCN(c2ccnc3ccc(NC(=O)Nc4ccc(-c5ccccc5)cc4)cc23)CC1` the figure was 0.78 µM. For the molecule `COCCN1CCN(Cc2ccc(-c3ccc(-c4nc5c(C)cccc5[nH]4)s3)cc2)CC1`, the 50% inhibitory concentration (IC50) is 0.86 µM.

On to `N=C1C=C(N)C(=O)c2ccccc21`, for which the IC50 was found to be 1.05 µM.

As to `CCC(=O)c1c(C)n(-c2ncnc3c2nc(C)n3-c2ccc(C)cc2C)c2ccccc12`, the half-inhibitory concentration (IC50) was 0.65 µM.

Molecule `COc1ccc(Cl)cc1-c1nc(C(=O)NCCN2CCCCC2)c(C(C)C)s1` came in with a half-maximal inhibitory concentration (IC50) of 0.75 µM.

`Cc1ccc2nc(-c3cc(-c4cccc(C#N)c4)cnc3N)[nH]c2c1`: the IC50 was determined as 0.12 µM. `COc1cccc([C@@H](CC(=O)Nc2cc(C(F)(F)F)ccc2OC)Nc2ccc(C#N)c3ccccc23)c1` had an IC50 of 0.99 µM. With `CCC(CN1C(=O)C(c2ccccc2)(c2ccccc2)N=C1N)c1ccccc1` (configuration not stated) the figure was 0.14 µM; with `O=C(Nc1cc(F)cc(-c2cccnc2)c1)c1ccc2c(=O)n(Cc3ccccc3)cnc2c1`, 1.33 µM. With `CC(Cc1ccc(CSC(C)C)cc1)NCC(O)c1cccc(Cl)c1` (configuration not stated), the IC50 worked out at 0.6 µM. Take `Cc1cc(N2CCN(CC3CCCCC3)CC2)nc(Nc2ccc(Br)cc2)n1`: the half-maximal inhibitory concentration (IC50) turned out to be 1.09 µM. Under `Cc1cc(NN=Cc2ccccc2[N+](=O)[O-])c2ccc(F)cc2n1` stands 0.35 µM; under `CC(=O)c1ccc(-c2cccc3c(CC(=O)Nc4ccc5nccc(N6CCN(C)CC6)c5c4)cccc23)cc1`, 0.5 µM. In the case of `CCCC1N=C(N)N=C(N)N1c1ccccc1` (configuration not stated), the half-inhibitory concentration (IC50) was 0.82 µM. For `CS(=O)(=O)CCNCc1cc(-c2cc3ncnc(Nc4ccc(OCc5cccc(F)c5)c(Cl)c4)c3s2)cs1`, the IC50 is 0.33 µM. Turning to `CCn1cc(C=C2Oc3c(ccc(O)c3CN3CCCCC3)C2=O)c2cc(OC)ccc21`, the concentration for half-maximal inhibition (IC50) came out at 0.52 µM. As for `CCCCCCNc1cc(C)nc(/N=C(\N)Nc2cccc(C(F)(F)F)c2)n1`, the half-inhibitory concentration (IC50) came to 0.74 µM. As to `CC1(CCN2CCC(c3c[nH]c4cnccc34)CC2)CCCc2c(Br)cccc2C1=O` (configuration not stated), the half-inhibitory concentration (IC50) came out at 0.2 µM. `Oc1ccc(Cl)cc1CN1CCCC(COC(c2ccc(F)cc2)c2ccc(F)cc2)C1` (configuration not stated) came in with a concentration for half-maximal inhibition (IC50) of 0.68 µM. `CCCOc1ccccc1-c1nc2[nH]c3c(c2c(=O)[nH]1)CCN(C)C3` displayed an IC50 of 0.37 µM. For `CCOc1ccc2c(NN=Cc3cccc(OC)c3)cc(C)nc2c1`, the IC50 was 0.12 µM. In turn, `CCC(CO)NCC(O)Cn1c2ccc(Cl)cc2c2cc(Cl)ccc21` (configuration not stated) came in with an IC50 of 0.77 µM.

`CS(=O)(=O)CCNc1nccc(N2CCc3ncnc(Nc4ccc(OCc5cccc(F)c5)c(Cl)c4)c3C2)n1` registered a half-inhibitory concentration (IC50) of 0.13 µM. This IC50 is about 5.9-fold lower than that of the molecule before. In the case of `CCN(C(=O)CSc1cc(C)c2cc(C)cc(C)c2n1)C1CCS(=O)(=O)C1` (configuration not stated), the IC50 was found to be 0.67 µM.

In turn, `O=C(Nc1ccc(-c2cccc(-c3nc4ccccc4[nH]3)c2)cc1)c1cnn2cccnc12` returned an IC50 of 0.6 µM. This IC50 and that of the molecule before are within 1.5-fold of each other. `COc1cc(-c2nc(-c3ccccc3)c(-c3ccc(C(=O)c4ccc(F)cc4)cc3)[nH]2)cc(OC)c1O`: the half-inhibitory concentration (IC50) was 0.66 µM. The IC50 values of the last two molecules are within 1.5-fold of each other. The molecule `COc1ccc(CNCc2cccc(-c3cccc(-c4nc5ccc(C(F)(F)F)cc5[nH]4)c3)c2)cc1` displayed a half-inhibitory concentration (IC50) of 0.2 µM. Compared with the last molecule, the IC50 is about 3.3-fold lower. With `Cc1ccc(C(=O)Nc2ccc(Nc3ccnc4cc(-c5ccncc5)ccc34)cc2O)cc1` the figure was 0.93 µM. `Oc1ccc(CCNc2nc(NCc3ccc4cc(Cl)ccc4c3)nc(N3CCNCC3)n2)cc1` had a concentration for half-maximal inhibition (IC50) of 1.02 µM. With `CC1CN(Cc2ccc(-c3ccc(-c4nc5ccccc5[nH]4)cc3)cc2)CC(C)O1` (configuration not stated), the IC50 came to 0.52 µM.

`Cc1cccc(-n2nc(C)c3c2NC(=O)CC3C(=O)c2ccc(Cl)s2)c1` (configuration not stated) gave a half-inhibitory concentration (IC50) of 0.47 µM. Consider `O=S(=O)(NCCN1CCCC1)c1ccc(-c2ccc(CNCc3ccc(F)cc3)cc2)cc1F`, for which the IC50 was determined as 1.28 µM. `C=CCc1ccc(C2CCN(CCCCNC(=O)c3ccc(NC(=O)c4ccc(Cl)cc4)cc3)CC2)cc1` had a half-inhibitory concentration (IC50) of 1.12 µM.

Regarding `Fc1ccc2nc(-c3ccc(-c4ccc(CNCCN5CCNCC5)cc4)cc3)[nH]c2c1`, the concentration for half-maximal inhibition (IC50) worked out at 0.85 µM. The IC50 values of the last two molecules are within 1.5-fold of each other. Consider `CN(Cc1ccc(C#N)cc1)C1CCN(c2cc(NC(=O)c3cccc(F)c3)ccn2)CC1`, for which the concentration for half-maximal inhibition (IC50) came out at 1.75 µM. Molecule `COc1ccccc1C(C)NCC(=O)Nc1cccc(C(=O)Nc2cccc(C(F)(F)F)c2)c1` (configuration not stated) displayed a half-inhibitory concentration (IC50) of 1.53 µM. `Cc1nnsc1C(=O)Nc1cccc(-c2ccc(-c3nc4ccccc4[nH]3)cc2)c1` registered a half-inhibitory concentration (IC50) of 0.87 µM.

`CCCCCN1CCCC(NS(=O)(=O)c2cccc(C(=O)Nc3cccc(C(F)(F)F)c3)c2)C1` (configuration not stated) had an IC50 of 1.07 µM. The IC50 values of the last two molecules are within 1.5-fold of each other.

In turn, `CC(=O)c1ccc2c(c1)CCN(CCC1CCC(NC(=O)c3cc4ccccc4[nH]3)CC1)CC2` (configuration not stated) had a concentration for half-maximal inhibition (IC50) of 0.98 µM. Molecule `O=C(OCC1CCN(Cc2ccccc2)C1)c1ccc(Cl)cc1` (configuration not stated) showed an IC50 of 0.68 µM. As to `Cc1nc(C)c(-c2ccc(Oc3ccc(OC(F)(F)F)cc3)cc2)c(OC(=O)c2ccc(CN(C)C)cc2)c1Cl`, the IC50 amounted to 0.14 µM. Compared with the last molecule, the IC50 is about 4.9-fold lower. In the case of `CCOC(=O)c1ccc(NC(=O)N(Cc2ccc(-c3ccc(CN4CCNCC4)cc3)cc2)C2CCN(Cc3ccccc3)CC2)cc1`, the 50% inhibitory concentration (IC50) worked out at 0.8 µM. Consider `Cc1ccc(F)cc1-c1cc(N2CCCN(C(=O)c3ccc(Br)o3)CC2)ncn1`, for which the IC50 turned out to be 1.43 µM. Against the preceding molecule, the IC50 is about 1.8-fold higher. `Cc1noc(C)c1-c1cccc(CNCc2ccc(-c3ccc(-c4nc5ccc(C(F)(F)F)cc5[nH]4)cc3)cc2)c1` gave a half-inhibitory concentration (IC50) of 0.17 µM. Regarding `CCCCCCCN1CC[C@@H](CCCc2ccnc3ccc(OCCC4CCNCC4)cc23)[C@@H](CC)C1`, the IC50 was 0.61 µM. Molecule `NC1CCN(c2nc(NCCCc3ccc(O)cc3)nc(NCc3ccccc3-c3ccccc3)n2)CC1` displayed a half-inhibitory concentration (IC50) of 0.68 µM. In turn, `N=C1c2ccccc2CN1CC(=O)c1ccc(Cl)c(Cl)c1` returned an IC50 of 0.73 µM.

`CC(C)(C)OC(=O)c1c(NC(=O)/C=C/c2ccc(O)c(O)c2)sc2c1CCCC2`: the IC50 came out at 0.82 µM. The IC50 values of the last two molecules are within 1.5-fold of each other. As to `CCOC(=O)CCCc1cc(NC2CCN(C)CC2)nc(Nc2ccc(OC)cc2)n1`, the half-inhibitory concentration (IC50) worked out at 0.7 µM. On to `Fc1cccc(Nc2nc(NCc3ccc4ccsc4c3)nc(Nc3cccc(F)c3)n2)c1`, for which the IC50 stood at 1.08 µM.

As for `S=C(NCCCCCN1CCC(c2c[nH]c3ccccc23)CC1)Nc1ccc(Cl)c(Cl)c1`, the IC50 was 0.71 µM. With `NC1CCN(c2nc(NCCCc3ccc(O)cc3)nc(NCc3ccccc3-c3ccc(C(F)(F)F)cc3)n2)CC1` the figure was 0.73 µM.

Source of the values: PubChem BioAssay AID2305 (GlaxoSmithKline (GSK), 2010).
